Experimental data reported in US10294202B2, “Pyrrolidinones as herbicides” (FMC Corporation, priority 2013, dated 2019).

Columns and labels:
[1] = test system: windgrass; experiment: Test D pre-/postemergence herbicide test; format: in vivo, Apera spica-venti; conditions: for Plant response rating: Postemergence, Windgrass, scale 0 to 100; for Plant response rating, Windgrass: Preemergence, scale 0 to 100 (0 no effect, 100 complete control)
Description: (§1) Seeds of plant species selected from bluegrass (annual bluegrass, Poa annua), blackgrass (Alopecurus myosuroides), canarygrass (littleseed canarygrass, Phalaris minor), chickweed (common chickweed, Stellaria media), galium (catchweed bedstraw, Galium aparine), bromegrass, downy (downy bromegrass, Bromus tectorum), field poppy (Papaver rhoeas), field violet (Viola arvensis), foxtail, green (green foxtail, Setaria viridis), deadnettle (henbit deadnettle, Lamium amplexicaule), ryegrass, Italian (Italian ryegrass, Lolium multiflorum), kochia (Kochia scoparia), lambsquarters (Chenopodium album), oilseed rape (Brassica napus), pigweed (Amaranthus retroflexus), chamomile (scentless chamomile, Matricaria inodora), Russian thistle (Salsola kali), speedwell (bird's-eye speedwell, Veronica persica), barley, spring (spring barley, Hordeum vulgare), wheat, spring (spring wheat, Triticum aestivum), buckwheat, wild (wild buckwheat, Polygonum convolvulus), mustard, wild (wild mustard, Sinapis arvensis), oat, wild (wild oat, Avena fatua), radish, wild (wild radish, Raphanus raphanistrum), […]), barley, winter (winter barley, Hordeum vulgare), and wheat, winter (winter wheat, Triticum aestivum) were planted into a silt loam soil and treated preemergence with test chemicals formulated in a non-phytotoxic solvent mixture which included a surfactant. At the same time, these species were planted in pots containing Redi-Earth® planting medium (Scotts Company, 14111 Scottslawn Road, Marysville, Ohio 43041) comprising spaghnum peat moss, vermiculite, wetting agent and starter nutrients and treated with postemergence applications of the test chemicals formulated in the same manner. Plants ranged in height from 2 to 18 cm (1- to 4-leaf stage). Treated plants and controls were maintained in a controlled growth environment for 7 to 21 days after which time all species were compared to controls and visually evaluated. Plant response ratings, summarized in Table D, are based on a scale of 0 to 100 where 0 is no effect and 100 is complete control. A dash (-) response means no test result.

[2] = test system: mustard, wild; experiment: Test D pre-/postemergence herbicide test; format: in vivo, Sinapis arvensis; conditions: for Plant response rating: Mustard, Wild, scale 0 to 100; for Plant response rating, Mustard, Wild: scale 0 to 100 (0 no effect, 100 complete control)
Description: as §1

[3] = test system: bromegrass, downy; experiment: Test C pre-/postemergence herbicide test; format: in vivo, Bromus tectorum
Description: (§2) Seeds of plant species selected from blackgrass (Alopecurus myosuroides), ryegrass, Italian (Italian ryegrass, Lolium multiflorum), wheat (winter wheat, Triticum aestivum), galium (catchweed bedstraw, Galium aparine), corn (Zea mays), crabgrass, large (large crabgrass, Digitaria sanguinalis), foxtail, giant (giant foxtail, Setaria faberii), johnsongrass (Sorghum halepense), lambsquarters (Chenopodium album), morningglory (Ipomoea coccinea), nutsedge, yellow (yellow nutsedge, Cyperus esculentus), pigweed (Amaranthus retroflexus), ragweed (common ragweed, Ambrosia elatior), soybean (Glycine max), barnyardgrass (Echinochloa crus-galli), oilseed rape (Brassica napus), waterhemp (common waterhemp, Amaranthus rudis), kochia (Kochia scoparia), oat, wild (wild oat, Avena fatua), surinam grass (Brachiaria decumbens), foxtail, green (green foxtail, Setaria viridis), goosegrass (Eleusine indica), bromegrass, downy (downy bromegrass, Bromus tectorum), nightshade (eastern black nightshade, Solanum ptycanthum), cocklebur (common cocklebur, Xanthium strumarium), cupgrass, woolly (woolly cupgrass, Eriochloa villosa), bermudagrass (Cynodon dactylon), sunflower, (common oilseed sunflower, Helianthus annuus), Russian thistle (Salsola kali) and velvetleaf (Abutilon theophrasti) were planted into a blend of loam soil and sand and treated preemergence with test chemicals formulated in a non-phytotoxic solvent mixture which included a surfactant. At the same time, plants selected from these crop and weed species and also barley (winter barley, Hordeum vulgare), […]), chickweed (common chickweed, Stellaria media), deadnettle (henbit deadnettle, Lamium amplexicaule), and canarygrass (littleseed canarygrass, Phalaris minor) were planted in pots containing Redi-Earth® planting medium (Scotts Company, 14111 Scottslawn Road, Marysville, Ohio 43041) comprising spaghnum peat moss, vermiculite, wetting agent and starter nutrients and treated with postemergence applications of test chemicals formulated in the same manner. Plants ranged in height from 2 to 18 cm (1- to 4-leaf stage) for postemergence treatments. Treated plants and controls were maintained in a greenhouse for 13 to 15 days, after which time all species were compared to controls and visually evaluated. Plant response ratings, summarized in Table C, are based on a scale of 0 to 100 where 0 is no effect and 100 is complete control. A dash (-) response means no test result.

[4] = test system: cupgrass, woolly; experiment: Test C pre-/postemergence herbicide test; format: in vivo, Eriochloa villosa
Description: as §2

[5] = Postemergence, 31 g ai/ha, scale 0 (no effect) to 100 (complete control)
[6] = Postemergence, 62 g ai/ha, scale 0 to 100 (0 no effect, 100 complete control)
[7] = Postemergence, 125 g ai/ha, scale 0 to 100 (0 no effect, 100 complete control)
[8] = Postemergence, 250 g ai/ha, scale 0 to 100 (0 no effect, 100 complete control)
[9] = Preemergence, 62 g ai/ha, scale 0 to 100
[10] = Preemergence, 125 g ai/ha, scale 0 to 100 (0 no effect, 100 complete control)
[11] = Preemergence, 31 g ai/ha, scale 0 to 100 (0 no effect, 100 complete control)
[12] = Preemergence, 250 g ai/ha, scale 0 to 100 (0 no effect, 100 complete control)
[13] = Postemergence, 16 g ai/ha, scale 0 to 100 (0 no effect, 100 complete control)
[14] = Preemergence, 16 g ai/ha, scale 0 to 100
[15] = Preemergence, 31 g ai/ha, scale 0 to 100, 0 is no effect and 100 is complete control

Compound | Plant response rating ([1]; 31 g ai/ha) | Plant response rating ([1]; 62 g ai/ha) | Plant response rating ([1]; 125 g ai/ha) | Plant response rating ([1]; 250 g ai/ha) | Plant response rating, Windgrass ([1]; 62 g ai/ha) | Plant response rating, Windgrass ([1]; 125 g ai/ha) | Plant response rating, Windgrass ([1]; 31 g ai/ha) | Plant response rating, Windgrass ([1]; 250 g ai/ha) | Plant response rating ([2]; Postemergence, 31 g ai/ha) | Plant response rating ([2]; Postemergence, 125 g ai/ha) | Plant response rating ([2]; Postemergence, 250 g ai/ha) | Plant response rating, Mustard, Wild ([2]; Preemergence, 62 g ai/ha) | Plant response rating, Mustard, Wild ([2]; Preemergence, 31 g ai/ha) | Plant response rating ([2]; Preemergence, 250 g ai/ha) | Plant response rating, Bromegrass, Downy [3, 9] | Plant response rating, Bromegrass, Downy [3, 10] | Bromegrass, Downy plant response rating [3, 11] | Plant response rating, Cupgrass, Woolly [4, 9] | Plant response rating, Cupgrass, Woolly [4, 10] | Cupgrass, Woolly plant response rating [4, 11] | also measured
O=C1NCC(c2ccc(Cl)c(F)c2)C1C(=O)Nc1cccc(F)c1F (stereo not drawn) [Compound 52] | 0 | 0 | 0 | 0 | 0 | 40 | 0 | 60 | 10 | 20 | 25 | 0 | 0 | 10 | 0 | 0 | 0 | 70 | 75 | 40 | Plant response rating ([1]; 16 g ai/ha): 0; Plant response rating, Windgrass ([1]; 16 g ai/ha): 0; Plant response rating ([2]; Postemergence, 16 g ai/ha): 0; Plant response rating ([2]; Postemergence, 62 g ai/ha): 20; Plant response rating, Mustard, Wild ([2]; Preemergence, 16 g ai/ha): 0; Plant response rating ([2]; Preemergence, 125 g ai/ha): 0; Plant response rating, Bromegrass, Downy [3, 5]: 0; Plant response rating, Bromegrass, Downy [3, 6]: 0; Plant response rating, Bromegrass, Downy [3, 7]: 0; Plant response rating, Bromegrass, Downy [3, 8]: 10; Plant response rating, Bromegrass, Downy [3, 12]: 0; Plant response rating, Cupgrass, Woolly [4, 5]: 0; Plant response rating, Cupgrass, Woolly [4, 6]: 5; Plant response rating, Cupgrass, Woolly [4, 7]: 5; Plant response rating, Cupgrass, Woolly [4, 8]: 10; Plant response rating, Cupgrass, Woolly [4, 12]: 85
O=C1NCC(c2ccc(F)c(C(F)(F)F)c2)C1C(=O)Nc1cccc(F)c1F (racemic) [Compound 77] |  |  |  |  | 85 | 90 | 45 | 95 |  |  |  | 20 | 0 | 45 |  |  |  |  |  |  | Plant response rating ([2]; Preemergence, 125 g ai/ha): 25
O=C1NCC(c2ccc(C(F)(F)F)cc2)C1C(=O)Nc1ccccc1F (stereo not drawn) [Compound 231] | 0 | 5 | 0 | 15 | 70 | 75 | 55 | 85 | 35 | 65 | 75 | 10 | 0 | 15 |  |  |  |  |  |  | Plant response rating ([2]; Postemergence, 62 g ai/ha): 65; Plant response rating, Mustard, Wild ([2]; Preemergence, 125 g ai/ha): 0
O=C1NCC(c2ccc(F)c(Cl)c2)C1C(=O)Nc1ccccc1F (stereo not drawn) [Compound 60] |  |  |  |  |  |  |  |  |  |  |  |  |  |  | 0 | 0 | 0 | 75 | 75 | 55 | Plant response rating, Bromegrass, Downy [3, 5]: 0; Plant response rating, Bromegrass, Downy [3, 6]: 0; Plant response rating, Bromegrass, Downy [3, 7]: 5; Plant response rating, Cupgrass, Woolly [4, 5]: 0; Plant response rating, Cupgrass, Woolly [4, 6]: 0; Plant response rating, Cupgrass, Woolly [4, 7]: 5
O=C1NCCC1C(=O)N(c1ccc(F)c(F)c1)c1ccccc1F (stereo not drawn) [Compound 5, N-(3,4-difluorophenyl)-N-(2-fluorophenyl)-2-oxo-3-pyrrolidinecarboxamide] |  |  |  |  |  |  |  |  |  |  |  |  |  |  | 0 | 0 | 0 | 85 | 90 | 80 | Plant response rating, Bromegrass, Downy [3, 12]: 0; Plant response rating, Cupgrass, Woolly [4, 12]: 95
O=C1NCC(c2ccc(F)c(F)c2)C1C(=O)Nc1ccccc1C(F)(F)F (racemic) [Compound 6] | 0 | 0 | 0 | 0 | 0 | 100 | 0 | 100 | 0 | 0 | 0 | 0 | 0 | 20 |  |  |  |  |  |  | Plant response rating ([1]; 16 g ai/ha): 0; Plant response rating, Windgrass ([1]; 16 g ai/ha): 0; Plant response rating ([2]; Postemergence, 16 g ai/ha): 0; Plant response rating, Mustard, Wild ([2]; Preemergence, 16 g ai/ha): 0; Plant response rating ([2]; Preemergence, 125 g ai/ha): 10
O=C1NCC(c2cc(F)c(F)c(F)c2)C1C(=O)Nc1cccc(F)c1F (stereo not drawn) [Compound 48] |  |  |  |  |  |  |  |  |  |  |  |  |  |  | 0 | 0 | 0 | 70 | 85 | 70 | Plant response rating, Bromegrass, Downy [3, 13]: 0; Plant response rating, Bromegrass, Downy [3, 5]: 0; Plant response rating, Bromegrass, Downy [3, 6]: 0; Plant response rating, Bromegrass, Downy [3, 7]: 0; Plant response rating, Bromegrass, Downy [3, 14]: 0; Plant response rating, Cupgrass, Woolly [4, 13]: 0; Plant response rating, Cupgrass, Woolly [4, 5]: 0; Plant response rating, Cupgrass, Woolly [4, 6]: 5; Plant response rating, Cupgrass, Woolly [4, 7]: 5; Plant response rating, Cupgrass, Woolly [4, 14]: 25
O=C1NCC(c2cccc(OC(F)(F)F)c2)C1C(=O)Nc1ccccc1F (stereo not drawn) [Compound 69] |  |  |  |  |  |  |  |  |  |  |  |  |  |  | 0 | 0 |  | 85 | 85 |  | Bromegrass, Downy plant response rating [3, 15]: 0; Plant response rating (scale of 0 to 100), Bromegrass, Downy ([3]; Preemergence, 250 g ai/ha): 0; Cupgrass, Woolly plant response rating [4, 15]: 75; Plant response rating (scale of 0 to 100), Cupgrass, Woolly ([4]; Preemergence, 250 g ai/ha): 90
